“And” between values parts separate entries of the source, which are not always exact repeats. Identical values can stand only once.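 Interpolation was linear, between the two tested concentrations surrounding the appropriate level; five concentrations were tested over 48 hours in 96-well plates. Here, GI50 denotes the concentration required for 50% inhibition of growth. TGI: concentration producing complete growth inhibition.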
Assays:
Test in all cases: NCI anticancer screen, dose series, 48 h
RXF 393 renal = test system: RXF 393 renal
HOP-92 NSCLC = test system: HOP-92 NSCLC
DMS 114 small cell lung = test system: DMS 114 small cell lung
SK-MEL-5 melanoma = test system: SK-MEL-5 melanoma
HL-60(TB) leukemia = test system: HL-60(TB) leukemia
SF-539 CNS = test system: SF-539 CNS
MOLT-4 leukemia = test system: MOLT-4 leukemia
HOP-18 NSCLC = test system: HOP-18 NSCLC
DMS 273 small cell lung = test system: DMS 273 small cell lung
M19-MEL melanoma = test system: M19-MEL melanoma
COLO 205 colon = test system: COLO 205 colon
NCI/ADR-RES ovarian = test system: NCI/ADR-RES ovarian

Compound	TGI (RXF 393 renal)	TGI (HOP-92 NSCLC)	TGI (DMS 114 small cell lung)	TGI (SK-MEL-5 melanoma)	TGI (HL-60(TB) leukemia)	TGI (SF-539 CNS)	TGI (MOLT-4 leukemia)	TGI (HOP-18 NSCLC)	TGI (DMS 273 small cell lung)	TGI (M19-MEL melanoma)	GI50 (RXF 393 renal)	GI50 (HOP-92 NSCLC)	GI50 (SK-MEL-5 melanoma)	GI50 (HL-60(TB) leukemia)	GI50 (SF-539 CNS)	GI50 (COLO 205 colon)	TGI (COLO 205 colon)	GI50 (MOLT-4 leukemia)	GI50 (NCI/ADR-RES ovarian)	TGI (NCI/ADR-RES ovarian)
N/C(=N\C(=S)N1CCCCC1)N1CCCCC1	> 100 µM	> 100 µM	> 100 µM	> 100 µM	> 100 µM	> 100 µM	> 100 µM	> 100 µM	> 100 µM	> 100 µM	–	–	–	–	–	–	–	–	–	–
C=CCSc1n[nH]c(-c2cccs2)n1	> 100 µM	> 100 µM	–	> 100 µM	> 100 µM	> 100 µM	> 100 µM	–	–	–	> 100 µM	> 100 µM	> 100 µM	> 100 µM	> 100 µM	> 100 µM	> 100 µM	> 100 µM	> 100 µM	> 100 µM
Cc1ccc(NC2=C(Cl)C(=O)c3nc(C)ccc3C2=O)cc1	2.96 µM	2.93 µM	–	3.1 µM	4.96 µM	3.11 µM	> 100 µM	–	–	–	1.57 µM	1.4 µM	1.71 µM	1.98 µM	1.67 µM	1.93 µM	4.37 µM	2.52 µM	1.73 µM	4.62 µM
CC1=COC2=C(C)C(=O)C(=O)c3c(C)ccc1c32	21.5 µM	39.9 µM	–	3.26 µM	5.38 µM	10.7 µM	12 µM	–	–	–	–	–	–	–	–	–	8.91 µM	–	–	7.87 µM
Oc1cccc(C2SCc3nc4ccccc4n32)c1 (configuration not stated)	> 100 µM	> 100 µM	> 100 µM	38.2 µM	> 100 µM	> 100 µM	> 100 µM	> 100 µM	> 100 µM	–	–	–	–	–	–	–	> 100 µM	–	–	–
Nc1nc(N)c(-c2ccccc2)c(C(=O)Nc2ccc(Cl)c(Cl)c2)n1	> 100 µM	> 100 µM	> 100 µM	> 100 µM	> 100 µM	> 100 µM	> 100 µM	> 100 µM	> 100 µM	> 100 µM	–	–	–	–	–	–	–	–	–	–
C=C(C)C1CC[C@]2(C(=O)O)CCC3(C)[C@H](CCC4[C@@]5(C)CC[C@H](OC6OC(CO)C(O)C6OC6OC(C)C(O)C(O)C6O)[C@@](C)(CO)C5CC[C@]43C)C12 (some centres not stated)	> 100 µM	–	> 100 µM	> 100 µM	> 100 µM	> 100 µM	> 100 µM	–	> 100 µM	> 100 µM	–	–	–	–	–	–	> 100 µM	–	–	–
Cc1ccc(NC(=O)SCCC(=O)O)cc1NC(=O)SCCC(=O)O	> 100 µM	–	> 100 µM	–	> 100 µM	> 100 µM	> 100 µM	–	> 10 µM	–	–	–	–	–	–	–	> 10 µM	–	–	–
COc1cc(C2C(C(=O)O)=C(C)Oc3cc4c(cc32)OCO4)cc(OC)c1OC (configuration not stated)	> 100 µM	> 100 µM	50.6 µM	> 100 µM	50.8 µM	–	> 100 µM	> 100 µM	> 100 µM	> 100 µM	–	–	–	–	–	–	60.6 µM	–	–	–
CCN(C)S(=O)(=O)Nc1cccc(Nc2ncnc3cc(NC(=O)CCl)ccc23)c1Cl	7.42 µM	7.95 µM	–	7.83 µM	11.3 µM	6.77 µM	8.83 µM	–	–	–	3.57 µM	3.4 µM	3.43 µM	4.74 µM	3.43 µM	2.5 µM	6.51 µM	0.926 µM	9.17 µM	> 25 µM
O=C(Nc1ccc(-n2cc(-c3ccncc3)c(-c3ccc(Cl)c(O)c3)n2)cc1)c1cc(Cl)cc(Cl)c1	0.879 µM	> 100 µM	–	2.93 µM	> 31.6 µM	> 100 µM	> 100 µM	–	–	–	0.291 µM	5.57 µM	1.46 µM	4.41 µM	1.88 µM	9.36 µM	> 100 µM	5.71 µM	6.1 µM	> 100 µM
C=CC(=O)Nc1cc2c(Nc3ccc(OCc4ccccn4)c(Cl)c3)ncnc2cc1OCCN1CCOCC1	3.8 µM	9.06 µM	–	14.3 µM	22.5 µM	> 100 µM	> 85.1 µM	–	–	–	0.784 µM	1.02 µM	3.8 µM	2.58 µM	2.63 µM	6.19 µM	> 100 µM	3.02 µM	3.77 µM	> 100 µM
CC/C(=C(\c1ccc(O)cc1)c1ccc(OCCNC)cc1)c1ccccc1	3.68 µM and 3.3 µM and 2.8 µM	2.04 µM and 2.96 µM and 7.46 µM	–	3.17 µM and 3.07 µM	4.43 µM and 4.07 µM and 5.44 µM	3.15 µM and 3.09 µM and 3.01 µM	8.37 µM and 5.92 µM and 8.57 µM	–	–	–	1.5 µM and 1.63 µM and 1.37 µM	–	1.77 µM and 1.66 µM and 1.71 µM	1.88 µM and 1.89 µM and 2.39 µM	1.74 µM and 1.7 µM and 1.59 µM	1.78 µM and 1.8 µM	3.28 µM and 3.31 µM and 3.44 µM	3.22 µM and 1.94 µM and 2.98 µM	2.6 µM and 2.55 µM and 2.5 µM	6.83 µM and 7.06 µM and 6.81 µM
NC(N)=NC(N)=NCCc1ccccc1	> 100 µM	> 100 µM	–	> 100 µM	> 100 µM	> 100 µM	> 100 µM	–	–	–	> 100 µM	1.51 µM	87.7 µM and 73.3 µM	77.4 µM and > 100 µM	> 100 µM	> 100 µM	> 100 µM	> 100 µM	> 100 µM	> 100 µM
O=C(N/N=C/c1cc2ccccc2c2ccccc12)c1cc(O)c(O)c(O)c1	10.1 µM	7.19 µM	–	10.6 µM	15.2 µM	5.8 µM	18.2 µM	–	–	–	2.77 µM	2.1 µM	2.9 µM	3.54 µM	2.17 µM	3.14 µM	10.9 µM	3.8 µM	12.4 µM	> 100 µM
COC(=O)C1CCc2c(OC)ccc(OC)c2C1=O (configuration not stated)	–	> 100 µM	> 100 µM	> 100 µM	> 100 µM	> 100 µM	> 100 µM	> 100 µM	> 100 µM	> 100 µM	–	–	–	–	–	–	> 100 µM	–	–	–
C/C=C(/C)C(=O)OC1C=C(CO)C(=O)C(OC(=O)/C(C)=C\C)C1C(C)C (configuration not stated)	2.54 µM	1.15 µM	–	2.66 µM	3.86 µM	2.69 µM	3.89 µM	–	–	–	1.13 µM	0.528 µM	1.33 µM	0.403 µM	1.38 µM	0.823 µM	2.75 µM	0.335 µM	1.57 µM	6.11 µM

Reference: PubChem BioAssay (NCI)
